Columns and labels:
[1] = target: IL-17A(FLAG-Tagged): IL-17RA(His-Tagged) (Homo sapiens, UniProt Q16552, K93Q); assay: IL-17A(FLAG-Tagged): IL-17RA(His-Tagged) Binding Disruption Eu-HTRF Assay; conditions: IL-17A/IL-17RA binding disruption, simple average if tested more than once
How it was run: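 IC50 comes from a one-site competition fit of the HTRF 665/620 nm ratio. Compound dilutions (2-fold, 22 points) were held 1 h rt with FLAG-tagged IL-17A dimer, then His-tagged IL-17RA plus Eu-cryptate anti-FLAG and D2 anti-His antibodies were added for 2 h rt.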

[2] = system: IL-17A-induced G-CSF production in human normal keratinocyte (NHK); assay: NHK Assay: IL-17A-induced G-CSF production in human normal keratinocytes; assay type: cell-based; conditions: 24 h, adult normal human keratinocytes, IL-17A 5 ng/mL, simple average if tested more than once
How it was run: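 Titrated compound plus recombinant human IL-17A (pre-incubated 1 h, rt) were applied to adult human keratinocytes at 5 ng/mL cytokine, 0.2% DMSO. Cultures ran 24 h at 37° C, and supernatant G-CSF was measured by HTRF to derive IC50.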

Sequence of UniProt Q16552 (Q16552 with tags, fused parts or gaps K93Q): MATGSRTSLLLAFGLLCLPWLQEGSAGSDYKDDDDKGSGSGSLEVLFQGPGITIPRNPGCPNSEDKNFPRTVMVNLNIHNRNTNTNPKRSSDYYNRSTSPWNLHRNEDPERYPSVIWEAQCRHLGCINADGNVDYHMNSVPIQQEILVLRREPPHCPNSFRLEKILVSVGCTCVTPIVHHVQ

| IC50 [1] [nM] | SMILES | IC50 ([2]; Homo sapiens, Keratinocyte) [nM] | IC50 [2] [nM] |
| --- | --- | --- | --- |
| 46 | O=C(CCC(F)(F)F)N[C@@H](c1cnn2cc([C@@H](NC(=O)c3conc3CC3CC3)C3CCC(F)(F)CC3)nc2c1)C1CC1 [Example 236, N—((S)-(7-((R)-Cyclopropyl(4,4,4-trifluorobutanamido)methyl)imidazo[1,2-b]pyridazin-2-yl)(4,4-difluorocyclohexyl)methyl)-3-(cyclopropylmethyl)isoxazole-4-carboxamide] | 360 | – |
| 190 | CC(C(F)F)n1ncnc1C(=O)N[C@H](c1cn2ncc([C@H](NC(=O)CCC(F)(F)F)C3CC3)cc2n1)C1CCC(F)(F)CC1 (stereo partly drawn) [Example 479, N—((S)-(7-((R)-Cyclopropyl(4,4,4-trifluorobutanamido)methyl)imidazo[1,2-b]pyridazin-2-yl)(4,4-difluorocyclohexyl)methyl)-1-(1,1-difluoropropan-2-yl)-1H-1,2,4-triazole-5-carboxamide] | 430 | – |
| 45 | CC(C)Oc1cncc(C(=O)N[C@H](c2cn3ncc([C@H](NC(=O)CCC(F)(F)F)C4CC4)cc3n2)C2CCC(F)(F)CC2)c1 [Example 185, N—((S)-(7-((R)-Cyclopropyl(4,4,4-trifluorobutanamido)methyl)imidazo[1,2-b]pyridazin-2-yl)(4,4-difluorocyclohexyl)methyl)-5-isopropoxynicotinamide] | 690 | – |
| 2900 | Cc1cnccc1C(=O)N[C@H](c1cn2ncc([C@H](NC(=O)CCC(F)(F)F)C3CC3)cc2n1)C1CCC(F)(F)CC1 [Example 214, N—((S)-(7-((R)-Cyclopropyl(4,4,4-trifluorobutanamido)methyl)imidazo[1,2-b]pyridazin-2-yl)(4,4-difluorocyclohexyl)methyl)-3-methylisonicotinamide] | > 20000 | – |
| 55 | CC(C)c1conc1C(=O)N[C@H](c1cn2ncc([C@H](NC(=O)CCC(F)(F)F)C3CC3)cc2n1)C1CCC(F)(F)CC1 [Example 378, N—((S)-(7-((R)-Cyclopropyl(4,4,4-trifluorobutanamido)methyl)imidazo[1,2-b]pyridazin-2-yl)(4,4-difluorocyclohexyl)methyl)-4-isopropylisoxazole-3-carboxamide] | 95 | – |
| 79 | O=C(CCC(F)(F)F)N[C@@H](c1cnn2cc([C@@H](NC(=O)c3nocc3OCCF)C3CCC(F)(F)CC3)nc2c1)C1CC1 [Example 376, N—((S)-(7-((R)-Cyclopropyl(4,4,4-trifluorobutanamido)methyl)imidazo[1,2-b]pyridazin-2-yl)(4,4-difluorocyclohexyl)methyl)-4-(2-fluoroethoxy)isoxazole-3-carboxamide] | 280 | – |
| 56 | CCc1oncc1C(=O)N[C@H](c1cn2ncc([C@H](NC(=O)CCC(F)(F)F)C3CC3)cc2n1)C1CCC(F)(F)CC1 [Example 88, N—((S)-(7-((R)-Cyclopropyl(4,4,4-trifluorobutanamido)methyl)imidazo[1,2-b]pyridazin-2-yl)(4,4-difluorocyclohexyl)methyl)-5-ethylisoxazole-4-carboxamide] | 110 | – |
| 140 | COCc1cncc(C(=O)N[C@H](c2cn3ncc([C@H](NC(=O)CCC(F)(F)F)C4CC4)cc3n2)C2CCC(F)(F)CC2)c1 [Example 462, N—((S)-(7-((R)-Cyclopropyl(4,4,4-trifluorobutanamido)methyl)imidazo[1,2-b]pyridazin-2-yl)(4,4-difluorocyclohexyl)methyl)-5-(methoxymethyl)nicotinamide] | 1100 | – |

Continued, molecule first:

| SMILES | IC50 [1] [nM] | IC50 ([2]; Homo sapiens, Keratinocyte) [nM] | IC50 [2] [nM] |
| --- | --- | --- | --- |
| [2H]C([2H])([2H])n1nccc1C(=O)N[C@H](c1cn2ncc([C@H](NC(=O)C[C@@H](C)C(F)(F)F)C3CCC3)cc2n1)C1CCC(F)(F)CC1 (relative stereo) [Example 502, N—((S)-(7-((R*)-Cyclobutyl((R*)-4,4,4-trifluoro-3-methylbutanamido)methyl)imidazo[1,2-b]pyridazin-2-yl)(4,4-difluorocyclohexyl)methyl)-1-(methyl-d3)-1H-pyrazole-5-carboxamide] | 160 | 400 | – |
| CC(C)n1nccc1C(=O)N[C@H](c1cn2ncc([C@H](NC(=O)CCC(F)F)C3CC3)cc2n1)C1CCC(F)(F)CC1 [Example 280, N—((S)-(7-((R)-Cyclopropyl(4,4-difluorobutanamido)methyl)imidazo[1,2-b]pyridazin-2-yl)(4,4-difluorocyclohexyl)methyl)-1-isopropyl-1H-pyrazole-5-carboxamide] | 54 | 120 | – |
| O=C(CC1CC(F)(F)C1)N[C@@H](c1cnn2cc([C@@H](NC(=O)c3nonc3O)C3CCC(F)(F)CC3)nc2c1)C1CC1 [Example 412, N—((S)-(7-((R)-Cyclopropyl(2-(3,3-difluorocyclobutyl)acetamido)methyl)imidazo[1,2-b]pyridazin-2-yl)(4,4-difluorocyclohexyl)methyl)-4-hydroxy-1,2,5-oxadiazole-3-carboxamide] | > 50000 | > 20000 | – |
| O=C(CCC(F)(F)F)N[C@@H](c1cnn2cc([C@@H](NC(=O)c3cc(C(F)(F)F)ccn3)C3CCC(F)(F)CC3)nc2c1)C1CC1 [Example 198, N—((S)-(7-((R)-Cyclopropyl(4,4,4-trifluorobutanamido)methyl)imidazo[1,2-b]pyridazin-2-yl)(4,4-difluorocyclohexyl)methyl)-4-(trifluoromethyl)picolinamide] | 410 | 1800 | – |
| CC(C)n1nccc1C(=O)N[C@H](c1cn2ncc([C@H](NC(=O)C[C@H]3CC3(F)F)C3CC3)cc2n1)C1CCC(F)(F)CC1 (single isomer, unassigned) [Example 140] | 70 | 89 | – |
| CC(C)n1nccc1C(=O)N[C@H](c1cn2ncc(C(NC(=O)CC3(C(F)(F)F)CC3)C3(C#N)CC3)cc2n1)C1CCC(F)(F)CC1 (single isomer, unassigned) [Example 434, N—((S)-(7-((R*)-(1-Cyanocyclopropyl)(2-(1-(trifluoromethyl)cyclopropyl)acetamido)methyl)imidazo[1,2-b]pyridazin-2-yl)(4,4-difluorocyclohexyl)methyl)-1-isopropyl-1H-pyrazole-5-carboxamide] | 3300 | – | > 20000 |
| Cc1nonc1C(=O)N[C@H](c1cn2ncc([C@H](NC(=O)CCC3CC3(F)F)C3CC3)cc2n1)C1CCC(F)(F)CC1 (stereo partly drawn) [Example 290, N-((1S)-(7-((1R)-Cyclopropyl(3-(2,2-difluorocyclopropyl)propanamido)methyl)imidazo[1,2-b]pyridazin-2-yl)(4,4-difluorocyclohexyl)methyl)-4-methyl-1,2,5-oxadiazole-3-carboxamide] | 83 | 220 | – |
| Cc1nonc1C(=O)N[C@H](c1cn2ncc([C@H](NC(=O)C34CC(F)(C3)C4)C3CC3)cc2n1)C1CCC(F)(F)CC1 [Example 269, N—((S)-(7-((R)-Cyclopropyl(3-fluorobicyclo[1.1.1]pentane-1-carboxamido)methyl)imidazo[1,2-b]pyridazin-2-yl)(4,4-difluorocyclohexyl)methyl)-4-methyl-1,2,5-oxadiazole-3-carboxamide] | 2000 | 20000 | – |
| CC(C)(C)[C@@H](O)C(=O)NC(c1cnn2cc([C@@H](NC(=O)c3cnn(CC4CC4)n3)C3CCC(F)(F)CC3)nc2c1)C1CC1 (single isomer, unassigned) [Example 29, N—((S)-(7-((R*)-Cyclopropyl((R)-2-hydroxy-3,3-dimethylbutanamido)methyl)imidazo[1,2-b]pyridazin-2-yl)(4,4-difluorocyclohexyl)methyl)-2-(cyclopropylmethyl)-2H-1,2,3-triazole-4-carboxamide] | 46 | 370 | – |
| O=C(CC1CC(F)(F)C1)NC(c1cnn2cc([C@@H](NC(=O)c3cnn(CC4CC4)n3)C3CCC(F)(F)CC3)nc2c1)C1CC1 (single isomer, unassigned) [Example 26, N—((S)-(7-((R*)-Cyclopropyl(2-(3,3-difluorocyclobutyl)acetamido)methyl)imidazo[1,2-b]pyridazin-2-yl)(4,4-difluorocyclohexyl)methyl)-2-(cyclopropylmethyl)-2H-1,2,3-triazole-4-carboxamide] | 68 | 230 | – |
| Cc1nonc1C(=O)N[C@H](c1cn2ncc(C(CC3CCC3)NC(=O)CC3CC(F)(F)C3)cc2n1)C1CCC(F)(F)CC1 (single isomer, unassigned) [Example 438, N—((S)-(7-((R*)-2-Cyclobutyl-1-(2-(3,3-difluorocyclobutyl)acetamido)ethyl)imidazo[1,2-b]pyridazin-2-yl)(4,4-difluorocyclohexyl)methyl)-4-methyl-1,2,5-oxadiazole-3-carboxamide] | 470 | – | 8000 |
| [2H]C([2H])([2H])C([2H])([2H])n1nccc1C(=O)N[C@H](c1cn2ncc(C(COC)NC(=O)CC3CC(F)(F)C3)cc2n1)C1CCC(F)(F)CC1 (single isomer, unassigned) [Example 523, N—((S)-(7-((R*)-1-(2-(3,3-Difluorocyclobutyl)acetamido)-2-methoxyethyl)imidazo[1,2-b]pyridazin-2-yl)(4,4-difluorocyclohexyl)methyl)-1-(ethyl-d5)-1H-pyrazole-5-carboxamide] | 270 | – | 110 |
| O=C(CCC(F)(F)F)N[C@@H](c1cnn2cc([C@@H](NC(=O)c3ncnn3CC3CC3)C3CCC(F)(F)CC3)nc2c1)C1CC1 [Example 39, N—((S)-(7-((R)-Cyclopropyl(4,4,4-trifluorobutanamido)methyl)imidazo[1,2-b]pyridazin-2-yl)(4,4-difluorocyclohexyl)methyl)-1-(cyclopropylmethyl)-1H-1,2,4-triazole-5-carboxamide] | 110 | 430 | – |

— patent publication US11702422B2, “Imidazopyridazines as modulators of IL-17” (Janssen Pharmaceutica NV, priority 2020, dated 2023)
